Data reported in PubChem BioAssay (NCI).
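Five concentrations, 48 hours, 96-well plates. Definition used: TGI = concentration required for complete inhibition of growth.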

What was measured:
Assay in all cases: NCI-60 cell line screen, 48 h
[1] = tested on: OVCAR-5 ovarian
[2] = tested on: HOP-62 NSCLC
[3] = tested on: MDA-MB-231 breast
[4] = tested on: SW-620 colon
[5] = tested on: MDA-N
[6] = tested on: 786-0 renal
[7] = tested on: IGROV1 ovarian
[8] = tested on: HS 578T breast
[9] = tested on: HCT-116 colon
[10] = tested on: BT-549 breast
[11] = tested on: EKVX NSCLC
[12] = tested on: TK-10 renal
[13] = tested on: MALME-3M melanoma
[14] = tested on: K-562 leukemia
[15] = tested on: OVCAR-8 ovarian
[16] = tested on: ACHN renal
[17] = tested on: MOLT-4 leukemia
[18] = tested on: SNB-75 CNS
[19] = tested on: HT29 colon
[20] = tested on: MDA-MB-435
[21] = tested on: DU-145 prostate
[22] = tested on: OVCAR-4 ovarian
[23] = tested on: U251 CNS
[24] = tested on: NCI-H23 lung
[25] = tested on: LOX IMVI melanoma
[26] = tested on: UO-31 renal
[27] = tested on: NCI-H522 lung
[28] = tested on: SN12C renal
[29] = tested on: COLO 205 colon
[30] = tested on: NCI-H226 lung
[31] = tested on: KM12 colon
[32] = tested on: NCI-H460 lung
[33] = tested on: HOP-92 NSCLC
[34] = tested on: OVCAR-3 ovarian
[35] = tested on: NCI/ADR-RES ovarian
[36] = tested on: A498 renal
[37] = tested on: SK-MEL-5 melanoma
[38] = tested on: HL-60(TB) leukemia
[39] = tested on: T-47D breast
[40] = tested on: PC-3 prostate
[41] = tested on: MCF7 breast
[42] = tested on: UACC-62 melanoma
[43] = tested on: CAKI-1 renal
[44] = tested on: SK-MEL-28 melanoma
[45] = tested on: M14 melanoma
[46] = tested on: A549 NSCLC
[47] = tested on: SNB-19 CNS
[48] = tested on: HCC-2998 colon
[49] = tested on: SF-539 CNS
[50] = tested on: UACC-257 melanoma
[51] = tested on: RPMI-8226 leukemia
[52] = tested on: SK-MEL-2 melanoma
[53] = tested on: HCT-15 colon
[54] = tested on: CCRF-CEM leukemia
[55] = tested on: SF-268 CNS
[56] = tested on: SF-295 CNS
[57] = tested on: RXF 393 renal
[58] = tested on: SR leukemia
[59] = tested on: SK-OV-3 ovarian

Which results are given for Cc1nc2c(o1)C(=O)c1ccccc1C2=NC1CCCCC1N (configuration not stated)?
TGI [1]: 3.24 µM; TGI [2]: 2.3 µM; TGI [3]: 2.75 µM; TGI [4]: 1.38 µM; TGI [5]: 0.343 µM; TGI [6]: 3.43 µM; TGI [7]: 2.89 µM; TGI [8]: 2.76 µM; TGI [9]: 0.729 µM; TGI [10]: 1.29 µM; TGI [11]: 2.92 µM; TGI [12]: 3.84 µM; TGI [13]: 0.275 µM; TGI [14]: > 100 µM; TGI [15]: 1.21 µM; TGI [16]: 2 µM; TGI [17]: 1.46 µM; TGI [18]: 0.564 µM; TGI [19]: 5.33 µM; TGI [20]: 0.302 µM; TGI [21]: 2.8 µM; TGI [22]: 1.01 µM; TGI [23]: 1.32 µM; TGI [24]: 0.276 µM; TGI [25]: 0.66 µM; TGI [26]: 3 µM; TGI [27]: 2.33 µM; TGI [28]: 1.16 µM; TGI [29]: 3.08 µM; TGI [30]: 3.75 µM; TGI [31]: 3.18 µM; TGI [32]: 3.15 µM; TGI [33]: 1.97 µM; TGI [34]: 1.66 µM; TGI [35]: 1.2 µM; TGI [36]: 3.12 µM; TGI [37]: 0.252 µM; TGI [38]: 0.749 µM; TGI [39]: 1.86 µM; TGI [40]: 3.46 µM; TGI [41]: 0.9 µM; TGI [42]: 0.318 µM; TGI [43]: 3.12 µM; TGI [44]: 0.313 µM; TGI [45]: 1.53 µM; TGI [46]: 2.91 µM; TGI [47]: 2.1 µM; TGI [48]: 3.02 µM; TGI [49]: 1.08 µM; TGI [50]: 0.321 µM; TGI [51]: 4.2 µM; TGI [52]: 2.53 µM; TGI [53]: 1.84 µM; TGI [54]: 1.28 µM; TGI [55]: 3.82 µM

With Cc1ccc(S(=O)(=O)NC(=O)NC(CO)C(=O)O)cc1 (configuration not stated) as the compound, how does the TGI [1] read?
Its TGI is over 100 µM.

And the TGI [2]?
Its TGI is over 100 µM.

What about the TGI [3] of the same compound?
The TGI was over 100 µM.

What about the TGI [4] of the same compound?
Its TGI is over 100 µM.

And the TGI [5]?
Its TGI is over 100 µM.

And the TGI [6]?
The TGI was over 100 µM.

What about the TGI [7] of the same compound?
The TGI was over 100 µM.

And the TGI [8]?
Its TGI is over 100 µM.

What about the TGI [9] of the same compound?
Its TGI is over 100 µM.

What about the TGI [10] of the same compound?
Its TGI is over 100 µM.

And the TGI [12]?
The TGI was over 100 µM.

What about the TGI [13] of the same compound?
Its TGI is over 100 µM.

What about the TGI [14] of the same compound?
The TGI was over 100 µM.

What about the TGI [15] of the same compound?
Its TGI is over 100 µM.

What about the TGI [16] of the same compound?
Its TGI is over 100 µM.

And the TGI [17]?
The TGI was over 100 µM.

And the TGI [18]?
Its TGI is over 100 µM.

And the TGI [19]?
Its TGI is over 100 µM.

What about the TGI [21] of the same compound?
Its TGI is over 100 µM.

What about the TGI [22] of the same compound?
The TGI was over 100 µM.

What about the TGI [23] of the same compound?
The TGI was over 100 µM.

And the TGI [24]?
The TGI was over 100 µM.

And the TGI [25]?
The TGI was over 100 µM.

What about the TGI [56] of the same compound?
The TGI was over 100 µM.

And the TGI [26]?
The TGI was over 100 µM.

What about the TGI [27] of the same compound?
Its TGI is over 100 µM.

What about the TGI [28] of the same compound?
The TGI was over 100 µM.

What about the TGI [29] of the same compound?
The TGI was over 100 µM.

What about the TGI [31] of the same compound?
The TGI was over 100 µM.

What about the TGI [32] of the same compound?
The TGI was over 100 µM.

And the TGI [33]?
The TGI was over 100 µM.

What about the TGI [57] of the same compound?
Its TGI is over 100 µM.

And the TGI [35]?
The TGI was over 100 µM.

And the TGI [37]?
Its TGI is over 100 µM.

What about the TGI [38] of the same compound?
Its TGI is over 100 µM.

And the TGI [39]?
The TGI was over 100 µM.

And the TGI [40]?
Its TGI is over 100 µM.

And the TGI [41]?
Its TGI is over 100 µM.

And the TGI [42]?
The TGI was over 100 µM.

What about the TGI [58] of the same compound?
The TGI was over 100 µM.

What about the TGI [44] of the same compound?
Its TGI is over 100 µM.

And the TGI [45]?
Its TGI is over 100 µM.

What about the TGI [46] of the same compound?
Its TGI is over 100 µM.

And the TGI [47]?
Its TGI is over 100 µM.

And the TGI [49]?
The TGI was over 100 µM.

And the TGI [50]?
The TGI was over 100 µM.

And the TGI [51]?
The TGI was over 100 µM.

What about the TGI [52] of the same compound?
Its TGI is over 100 µM.

What about the TGI [53] of the same compound?
The TGI was over 100 µM.

And the TGI [54]?
The TGI was over 100 µM.

And the TGI [55]?
The TGI was over 100 µM.

And the TGI [59]?
The TGI was over 100 µM.
